# In PubChem BioAssay (NCI):
#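 48-hour exposure; five concentrations; linearly interpolated endpoints. At the GI50, growth is halved. TGI is the concentration that stops growth completely.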
# Key:
# Test in all cases: NCI tumour cell line growth inhibition, 48 h
# [1] = test system: 786-0 renal
# [2] = test system: A549 NSCLC
# [3] = test system: ACHN renal
# [4] = test system: CAKI-1 renal
# [5] = test system: CCRF-CEM leukemia
# [6] = test system: COLO 205 colon
# [7] = test system: HL-60(TB) leukemia
# [8] = test system: HOP-62 NSCLC
# [9] = test system: HOP-92 NSCLC
# [10] = test system: IGROV1 ovarian
# [11] = test system: K-562 leukemia
# [12] = test system: M14 melanoma
# [13] = test system: MALME-3M melanoma
# [14] = test system: MCF7 breast
# [15] = test system: MDA-MB-435
# [16] = test system: MOLT-4 leukemia
# [17] = test system: NCI-H23 lung
# [18] = test system: NCI-H460 lung
# [19] = test system: NCI/ADR-RES ovarian
# [20] = test system: OVCAR-4 ovarian
# [21] = test system: RPMI-8226 leukemia
# [22] = test system: RXF 393 renal
# [23] = test system: SF-268 CNS
# [24] = test system: SK-MEL-2 melanoma
# [25] = test system: SK-MEL-28 melanoma
# [26] = test system: SK-MEL-5 melanoma
# [27] = test system: SK-OV-3 ovarian
# [28] = test system: SNB-75 CNS
# [29] = test system: SR leukemia
# [30] = test system: SW-620 colon
# [31] = test system: T-47D breast
# [32] = test system: U251 CNS
# [33] = test system: UACC-62 melanoma
# [34] = test system: A498 renal
# [35] = test system: BT-549 breast
# [36] = test system: DU-145 prostate
# [37] = test system: EKVX NSCLC
# [38] = test system: HCC-2998 colon
# [39] = test system: HCT-116 colon
# [40] = test system: HCT-15 colon
# [41] = test system: HS 578T breast
# [42] = test system: HT29 colon
# [43] = test system: KM12 colon
# [44] = test system: MDA-MB-231 breast
# [45] = test system: NCI-H226 lung
# [46] = test system: NCI-H522 lung
# [47] = test system: OVCAR-3 ovarian
# [48] = test system: OVCAR-5 ovarian
# [49] = test system: OVCAR-8 ovarian
# [50] = test system: PC-3 prostate
# [51] = test system: SF-295 CNS
# [52] = test system: SF-539 CNS
# [53] = test system: SN12C renal
# [54] = test system: SNB-19 CNS
# [55] = test system: TK-10 renal
# [56] = test system: UACC-257 melanoma
# [57] = test system: UO-31 renal
# [58] = test system: LOX IMVI melanoma
structure (smiles),measurement,setting,value
C=CCN1C(=O)CS/C1=N/NC(=O)C(O)(c1ccccc1)c1ccccc1,TGI,[1],> 10 µM
same,TGI,[2],> 10 µM
same,TGI,[3],> 10 µM
same,TGI,[4],> 10 µM
same,TGI,[5],> 10 µM
same,TGI,[6],> 10 µM
same,TGI,[7],> 10 µM
same,TGI,[8],> 10 µM
same,TGI,[9],> 10 µM
same,TGI,[10],> 10 µM
same,TGI,[11],> 10 µM
same,TGI,[12],> 10 µM
same,TGI,[13],> 10 µM
same,TGI,[14],> 10 µM
same,TGI,[15],> 10 µM
same,TGI,[16],> 10 µM
same,TGI,[17],> 10 µM
same,TGI,[18],> 10 µM
same,TGI,[19],> 10 µM
same,TGI,[20],> 10 µM
same,TGI,[21],> 10 µM
same,TGI,[22],> 10 µM
same,TGI,[23],> 10 µM
same,TGI,[24],> 10 µM
same,TGI,[25],> 10 µM
same,TGI,[26],> 10 µM
same,TGI,[27],> 10 µM
same,TGI,[28],> 10 µM
same,TGI,[29],> 10 µM
same,TGI,[30],> 10 µM
same,TGI,[31],> 10 µM
same,TGI,[32],> 10 µM
same,TGI,[33],> 10 µM
COC(=O)C1=CC(NC(=O)OCc2ccccc2)C(C(=O)c2ccccc2)C[C@@H]1Sc1ccccc1 (stereo partly drawn),TGI,[5],4.99 µM
same,TGI,[7],3.03 µM
same,TGI,[11],7.72 µM
CC(=O)OC1CC2C(C)(C)C(=O)C=CC2(C)C2CCC3(C)C(c4ccoc4)OC(=O)C4OC43C12C (stereo not drawn),TGI,[1],27.4 µM
same,TGI,[34],> 100 µM
same,TGI,[2],86.9 µM
same,TGI,[3],> 100 µM
same,TGI,[35],44.4 µM
same,TGI,[4],31.1 µM
same,TGI,[6],21.7 µM
same,TGI,[36],11 µM
same,TGI,[37],> 100 µM
same,TGI,[38],14.2 µM
same,TGI,[39],11.3 µM
same,TGI,[40],35.4 µM
same,TGI,[7],> 100 µM
same,TGI,[8],87 µM
same,TGI,[9],> 100 µM
same,TGI,[41],> 100 µM
same,TGI,[42],39 µM
same,TGI,[10],> 100 µM
same,TGI,[11],> 100 µM
same,TGI,[43],19.4 µM
same,TGI,[12],28.1 µM
same,TGI,[14],29.5 µM
same,TGI,[44],14.1 µM
same,TGI,[16],76.4 µM
same,TGI,[45],> 100 µM
same,TGI,[17],41.5 µM
same,TGI,[18],16.1 µM
same,TGI,[46],19.8 µM
same,TGI,[19],> 100 µM
same,TGI,[47],> 100 µM
same,TGI,[20],> 100 µM
same,TGI,[48],> 100 µM
same,TGI,[49],53.9 µM
same,TGI,[50],> 100 µM
same,TGI,[21],8.02 µM
same,TGI,[22],27.2 µM
same,TGI,[23],> 100 µM
same,TGI,[51],> 100 µM
same,TGI,[52],26.6 µM
same,TGI,[24],39.2 µM
same,TGI,[25],> 100 µM
same,TGI,[26],19.2 µM
same,TGI,[27],48.7 µM
same,TGI,[53],17.2 µM
same,TGI,[54],> 100 µM
same,TGI,[28],> 100 µM
same,TGI,[30],> 100 µM
same,TGI,[31],> 100 µM
same,TGI,[55],> 100 µM
same,TGI,[32],26.1 µM
same,TGI,[56],> 100 µM
same,TGI,[33],18.4 µM
same,TGI,[57],15.2 µM
CCOC(=O)c1cc2c(n1Cc1ccccc1)-c1oncc1CC2,GI50,[1],7.51 µM
same,TGI,[1],34.2 µM
same,GI50,[34],1550 nM
same,TGI,[34],7.5 µM
same,GI50,[2],4.93 µM
same,TGI,[2],> 100 µM
same,GI50,[3],5.84 µM
same,TGI,[3],89 µM
same,GI50,[4],3.24 µM
same,TGI,[4],18.8 µM
same,GI50,[5],4.92 µM
same,TGI,[5],> 100 µM
same,GI50,[6],3.93 µM
same,TGI,[6],14.2 µM
same,GI50,[36],11.4 µM
same,TGI,[36],44 µM
same,GI50,[37],5.65 µM
same,TGI,[37],49.5 µM
same,GI50,[38],7.87 µM
same,TGI,[38],37.1 µM
same,GI50,[39],3.45 µM
same,TGI,[39],13.7 µM
same,GI50,[40],3.58 µM
same,TGI,[40],56.2 µM
same,GI50,[7],2400 nM
same,TGI,[7],6.59 µM
same,GI50,[8],5.3 µM
same,TGI,[8],> 100 µM
same,GI50,[9],5.24 µM
same,TGI,[9],42.7 µM
same,GI50,[41],2750 nM
same,TGI,[41],17.5 µM
same,GI50,[42],3.23 µM
same,TGI,[42],14.4 µM
same,GI50,[10],4.98 µM
same,TGI,[10],60.1 µM
same,GI50,[11],2480 nM
same,TGI,[11],> 100 µM
same,GI50,[43],3.49 µM
same,TGI,[43],27.6 µM
same,GI50,[58],5.5 µM
same,TGI,[58],25.4 µM
same,GI50,[12],3.69 µM
same,TGI,[12],24.6 µM
same,GI50,[13],6.28 µM
same,TGI,[13],37 µM
same,GI50,[14],> 100 µM
same,TGI,[14],> 100 µM
same,GI50,[44],5.66 µM
same,TGI,[44],57.1 µM
same,GI50,[15],878 nM
same,TGI,[15],4.37 µM
same,GI50,[16],4.73 µM
same,TGI,[16],44.6 µM
same,GI50,[45],10.7 µM
same,TGI,[45],> 100 µM
same,GI50,[17],6.37 µM
same,TGI,[17],67.1 µM
same,GI50,[18],3.08 µM
same,TGI,[18],11.4 µM
same,GI50,[46],1960 nM
same,TGI,[46],17.5 µM
same,GI50,[19],2010 nM
same,TGI,[19],6.3 µM
same,GI50,[47],3.06 µM
same,TGI,[47],10.5 µM
same,GI50,[20],7.69 µM
same,TGI,[20],> 100 µM
same,GI50,[48],16.2 µM
same,TGI,[48],> 100 µM
same,GI50,[49],7.19 µM
same,TGI,[49],66.9 µM
same,GI50,[50],9.68 µM
same,TGI,[50],94.1 µM
same,GI50,[21],4.65 µM
same,TGI,[21],30.2 µM
same,GI50,[22],6.88 µM
same,TGI,[22],30.9 µM
same,GI50,[23],6.89 µM
same,TGI,[23],79 µM
same,GI50,[51],2890 nM
same,TGI,[51],11.1 µM
same,GI50,[52],4.04 µM
same,TGI,[52],25.4 µM
same,GI50,[24],6.15 µM
same,TGI,[24],27.3 µM
same,GI50,[25],52.4 µM
same,TGI,[25],> 100 µM
same,GI50,[26],2970 nM
same,TGI,[26],12 µM
same,GI50,[27],7.07 µM
same,TGI,[27],93.1 µM
same,GI50,[53],10 µM
same,TGI,[53],55.8 µM
same,GI50,[54],7 µM
same,TGI,[54],> 100 µM
same,GI50,[28],4.68 µM
same,TGI,[28],> 100 µM
same,GI50,[29],2560 nM
same,TGI,[29],15.5 µM
same,GI50,[30],3.48 µM
same,TGI,[30],> 100 µM
same,GI50,[31],4.66 µM
same,TGI,[31],32 µM
same,GI50,[55],14.4 µM
same,TGI,[55],> 100 µM
same,GI50,[32],4.73 µM
same,TGI,[32],34 µM
same,GI50,[56],10.7 µM
same,TGI,[56],59.7 µM
same,GI50,[33],3.45 µM
same,TGI,[33],17.2 µM
same,GI50,[57],4.32 µM
same,TGI,[57],40.5 µM
